Measurements as given in patent US11872210B2, “Thiol isomerases inhibitors and use thereof” (WESTERN NEW ENGLAND UNIVERSITY, priority 2017, dated 2024).

What was measured:
[1] = system: platelets; test: Platelet spreading upon collagen; format: cell-based; settings: 0.1 μM-10 μM
Procedure: Platelet responses in the presence of zafirlukast, (0.1 μM-10 μM) were tested in a range of platelet functional assays including aggregation, granule secretion and spreading studies.

[2] = system: HeLa cells; test: PrestoBlue cell proliferation assay, HeLa; format: cell-based
Procedure: (§1) Cells were plated at 6,000 cells/well in a 96-well plate and treated with the indicated concentration of zafirlukast 24 hours later. Cells were allowed to grow for an additional 24 hours before alterations in growth were measured by the PrestoBlue cell proliferation assay in triplicate. Fluorescence readings with an excitation at 570 nm and emission of 600 nm were collected and treated samples were converted to a percentage of the untreated controls. OVCar8 (human ovarian cancer cell line), HCT116 (human colon cancer), HeLa (cervical cancer cell line) and MDA-MB-231 (breast cancer cell line) cell lines were examined for their ability to inhibit cell proliferation. […] Table 1 illustrates the results of a cell proliferation assay testing zafirlukast against OVCar8 cells, HCT116 cells, HeLa cells and MDA-MB-231 cells.

[3] = system: washed platelets; test: Dense granule secretion (ATP, lumi-aggregometer); format: cell-based, human; settings: 10 μM; collagen 1 μg/mL; vehicle 1.25 nM
Procedure: Human Platelet Preparation: 50 mL of blood was drawn from drug free, consenting individuals, into a syringe containing 5 mL sodium citrate (4% w/v) and 7.5 mL warmed ACD (85 mM sodium citrate, 71 mM citric acid and 110 mM glucose). Blood was centrifuged at 102 g for 20 minutes to obtain platelet-rich plasma (PRP), which was then decanted and 104 prostacyclin (PGI2 125 μg/mL, solubilized in ethanol) added. Platelets were pelleted by centrifugation at 1413 g for 10 minutes, platelet poor plasma was discarded and the pellet resuspended in 25 mL Tyrode's-HEPES buffer (134 mM NaCl, 2.9 mM KCl, 0.34 mM Na2HPO4, 12 mM NaHCO3, 20 mM HEPES, 1 mM MgCl2 and 5 mM glucose pH 7.3), 3 mL of ACD and 10 μL PGI2 were added and then following centrifugation at 1413 g for 10 minutes, the platelet pellet was re-suspended to the appropriate cell density using Tyrode's buffer. Platelets were rested for 30 minutes at 30° C. to allow platelet responses to recover.
Dense granule secretion: 395 μL of washed platelets were added to a cuvette and incubated with 5 μL of zafirlukast or vehicle (0.1% (v/v) DMSO) for 3 minutes at 37° C. 50 μL Chronolume substrate was added and incubated for a further 2 minutes. […]
Washed platelets (4×10^8 cells/mL), were pre-treated with zafirlukast (0.1-10 μM) or vehicle for 3 minutes. […] Statistical analysis was calculated using a one-way ANOVA (n=3), *P<0.05.

[4] = system: HCT116 cells; test: PrestoBlue cell proliferation assay, HCT116; format: cell-based, human; settings: HCT116, colon cancer, 24 hours treatment
Procedure: as §1

[5] = target: T1, ERp5 (Homo sapiens, UniProt Q15084); test: Insulin-based turbidometric assay of thiol isomerase inhibitory activity (ERp5); format: biochemical; settings: insulin turbidity assay, 6 point dose curve
T1 construct: purchased AbCam (Cambridge Mass.)
T1 sequence (Q15084 20-440): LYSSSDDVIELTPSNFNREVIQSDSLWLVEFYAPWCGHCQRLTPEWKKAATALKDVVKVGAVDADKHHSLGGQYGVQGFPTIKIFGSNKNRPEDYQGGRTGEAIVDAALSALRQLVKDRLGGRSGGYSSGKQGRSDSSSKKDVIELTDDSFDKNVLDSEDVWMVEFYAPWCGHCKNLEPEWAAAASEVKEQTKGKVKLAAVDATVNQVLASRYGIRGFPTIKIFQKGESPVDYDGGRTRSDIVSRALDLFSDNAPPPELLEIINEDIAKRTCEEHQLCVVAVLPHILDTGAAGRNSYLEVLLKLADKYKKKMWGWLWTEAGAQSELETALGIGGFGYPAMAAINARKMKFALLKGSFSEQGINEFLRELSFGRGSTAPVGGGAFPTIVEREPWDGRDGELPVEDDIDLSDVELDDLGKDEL
Description: Recombinant thiol isomerases were purchased from AbCam (Cambridge Mass.), recombinant insulin (bovine), bacitracin, dithiothreitol (DTT) buffers and all other chemicals were purchased from Sigma Aldrich (St. Louis, Mo.; while 384 well clear bottom plates were purchased from Corning (Corning, N.Y.).
The catalytic reduction of insulin by thiol isomerases in the presence of DTT results in aggregation of insulin chains. The turbidity of insulin aggregation can be monitored spectrophotometrically at an optical density (OD) at 650 nm. This approach has been used by multiple groups to identify thiol isomerase inhibitors in either a kinetic or endpoint fashion. A final concentration of either 10 μg/mL PDI, 30 μg/mL ERp5, 10 μg/mL ERp72 or 10 μg/mL thioredoxin, 125 μM insulin and 2 mM ethylenediaminetetraacetic acid (EDTA) in 30 μL of 100 mM potassium phosphate buffer was added to each experimental well plate, while negative control wells lacked any thiol isomerase. Lead compounds were diluted in a 6 point dose curve and the turbidity of insulin aggregation was measured kinetically each minute for 75 minutes using a Spectramax M3 plate reader (Molecular Devices, Sunnyvale, Calif.) Specificity assay utilized the insulin turbidity assay as well.

[6] = system: whole human blood; test: Thrombus formation under flow (in vitro, collagen coated Cellix capillaries); format: cell-based
Procedure: Thrombus Formation under flow: Human blood was drawn into 3.2% (w/v) sodium citrate and labelled with 2 μM DIOC-6 for an hour. A […] biochip was coated with 1 μL Collagen (100 μg/mL) for 1 hour. Blood was then incubated with vehicle (0.1% (v/v) DMSO) or zafirlukast (10 μM) for 5 minutes prior to perfusion over collagen coated Cellix microfluidic cells at a shear rate of 20 dynes/cm^2. Images were recorded for 10 minutes perfusion by confocal microscopy (Nikon Al Microscope, Nikon, Japan) and analyzed using ImageJ. Whole human blood labelled with the lipophilic dye DIOC-6 was incubated with zafirlukast (10 μM) or vehicle (0.1% (v/v) DMSO) for 5 minutes before perfusion over […] capillaries coated with collagen (100 μg/mL) at an arterial shear rate of 20 dynes/cm^2. Images were recorded for 10 minutes using confocal microscopy and analyzed using ImageJ. The median fluorescence intensity was determined and compared to max intensity response; the more intense the fluorescence the larger the volume of thrombus formed.

- IC50 ([2]; Homo sapiens, cervical cancer, 24 hours treatment): 30 µM
- IC50 [4]: 5 µM
- IC50 ([4]; Homo sapiens, HCT-116, 24 h): 5 to 10 µM
- inhibitory range on ERp5 [5]: 10 to 300 µM
Compound: COc1cc(C(=O)NS(=O)(=O)c2ccccc2C)ccc1Cc1cn(C)c2ccc(NC(=O)OC3CCCC3)cc12 [zafirlukast, 4-(5-cyclopentyloxycarbonylamino-1-methylindol-3-ylmethyl)-3-methoxy-N-o-tolylsulfonylbenzamide]
- platelet spreading upon collagen (in words) [1]: inhibit
- sensitivity of cell proliferation (in words) ([2]; compared with OVCar8 and HCT116): less sensitive
- mean ATP secretion [3]: 0.327 nM
- final size of the thrombus (in words) ([6]; 10 μM, 10 minutes perfusion): significantly diminished compared to the vehicle
- median fluorescence intensity (MFI) of thrombus ([6]; 10 μM, after 8 minutes of flow, 20 dynes/cm^2, vehicle 89.15): 74.86 Au
- inhibition at 10 µM ([6]; Homo sapiens, arterial shear 20 dynes/cm^2, read-out: inhibition of median fluorescence intensity compared to vehicle): 14.2%
